According to ChEMBL document CHEMBL1146891, “Preparation of 1-(3-aminobenzo[d]isoxazol-5-yl)-1H-pyrazolo[4,3-d]pyrimidin-7(6H)-ones as potent, selective, and efficacious inhibitors of coagulation factor Xa” (Bioorg Med Chem Lett, 2006):
Counter-ions that a name gives are not always drawn.

How the values were obtained:
Coagulation factor X [1] = target: T1, Coagulation factor X (Homo sapiens, UniProt P00742); assay: Anticoagulant activity in human plasma measured as activated partial thromboplastin time; assay type: functional, cell-free
T1 sequence (P00742 41-179 limits assumed): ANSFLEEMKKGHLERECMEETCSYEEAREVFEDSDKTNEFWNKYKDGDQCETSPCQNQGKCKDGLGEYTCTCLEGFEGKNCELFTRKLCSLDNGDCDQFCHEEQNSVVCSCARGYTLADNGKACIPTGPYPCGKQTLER
T1 sequence (P00742 235-488 limits assumed): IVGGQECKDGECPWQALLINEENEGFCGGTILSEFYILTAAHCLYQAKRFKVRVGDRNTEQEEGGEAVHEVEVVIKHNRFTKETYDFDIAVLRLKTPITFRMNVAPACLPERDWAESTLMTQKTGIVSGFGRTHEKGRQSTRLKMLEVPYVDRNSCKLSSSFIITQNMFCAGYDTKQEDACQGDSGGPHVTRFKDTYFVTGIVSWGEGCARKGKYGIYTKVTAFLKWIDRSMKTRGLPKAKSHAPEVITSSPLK

[2] = target: T2, Coagulation factor VII/tissue factor (Homo sapiens) (UniProt P08709+P13726); assay: Anticoagulant activity in human plasma measured as prothrombin time; assay type: functional, cell-free
Homo sapiens [3] = species on record: Homo sapiens; assay: Selectivity for f10a over chymotrypsin
[4] = target: Thrombin and coagulation factor X (Homo sapiens) (UniProt P00734+P00742); assay: Selectivity for f10a over thrombin; assay type: protein assay
Thrombin and coagulation factor X (Homo sapiens), sequence (P00742 whole entry, looked up, other chains not shown): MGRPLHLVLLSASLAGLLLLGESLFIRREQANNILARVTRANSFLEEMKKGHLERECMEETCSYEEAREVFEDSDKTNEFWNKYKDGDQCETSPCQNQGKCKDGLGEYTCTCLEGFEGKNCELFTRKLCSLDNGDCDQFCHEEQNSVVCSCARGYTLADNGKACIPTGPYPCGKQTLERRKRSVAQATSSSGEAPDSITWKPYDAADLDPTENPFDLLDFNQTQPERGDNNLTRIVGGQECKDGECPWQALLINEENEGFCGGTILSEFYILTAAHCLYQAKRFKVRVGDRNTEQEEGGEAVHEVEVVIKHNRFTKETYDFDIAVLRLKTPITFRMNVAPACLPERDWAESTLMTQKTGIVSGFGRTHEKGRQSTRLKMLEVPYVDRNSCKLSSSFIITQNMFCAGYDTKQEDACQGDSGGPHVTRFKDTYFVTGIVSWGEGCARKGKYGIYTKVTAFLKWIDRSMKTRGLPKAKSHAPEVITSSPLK

Homo sapiens [5] = species on record: Homo sapiens; assay: Selectivity for f10a over trypsin
Homo sapiens [6] = species on record: Homo sapiens; assay: Selectivity for f10a over activated protein C
[7] = target: Coagulation factor VII and X (Homo sapiens) (UniProt P00742+P08709); assay: Selectivity for f10a over f7a; assay type: protein assay
Homo sapiens [8] = species on record: Homo sapiens; assay: Selectivity for f10a over plasmin
Homo sapiens [9] = species on record: Homo sapiens; assay: Selectivity for f10a over tPA
[10] = target: Coagulation factor X and plasma kallikrein (Homo sapiens) (UniProt P03952+P00742); assay: Selectivity for f10a over plasma kallikrein; assay type: cell-free
Coagulation factor X and plasma kallikrein (Homo sapiens), sequence (P00742 whole entry, looked up): as the sequence (P00742 whole entry, looked up, other chains not shown) above
Coagulation factor X and plasma kallikrein (Homo sapiens), sequence (P03952 whole entry, looked up): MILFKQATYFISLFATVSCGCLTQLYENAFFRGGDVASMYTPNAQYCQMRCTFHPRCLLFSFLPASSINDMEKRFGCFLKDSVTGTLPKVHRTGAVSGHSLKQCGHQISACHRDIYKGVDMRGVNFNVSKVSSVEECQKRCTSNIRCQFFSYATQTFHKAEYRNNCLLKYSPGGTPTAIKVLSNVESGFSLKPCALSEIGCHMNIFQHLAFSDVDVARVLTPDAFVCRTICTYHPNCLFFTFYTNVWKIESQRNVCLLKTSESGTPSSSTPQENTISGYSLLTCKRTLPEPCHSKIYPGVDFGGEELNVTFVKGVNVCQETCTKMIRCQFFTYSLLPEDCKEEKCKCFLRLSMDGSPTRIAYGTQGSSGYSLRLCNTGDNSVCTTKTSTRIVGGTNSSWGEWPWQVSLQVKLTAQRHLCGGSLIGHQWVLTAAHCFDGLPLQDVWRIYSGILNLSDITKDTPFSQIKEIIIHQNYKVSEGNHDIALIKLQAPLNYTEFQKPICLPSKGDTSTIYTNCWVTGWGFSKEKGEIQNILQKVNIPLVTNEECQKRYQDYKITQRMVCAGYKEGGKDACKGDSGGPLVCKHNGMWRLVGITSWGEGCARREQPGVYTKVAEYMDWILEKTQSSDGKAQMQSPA

Homo sapiens [11] = species on record: Homo sapiens; assay: Selectivity for f10a over urokinase
Coagulation factor X [12] = target: T1, Coagulation factor X; assay: Binding affinity to human f10a
[13] = Clearance in dog at 0.5 mg/kg, iv and 0.2 mg/kg, po; assay type: ADME, organism-based, Canis lupus familiaris; details: in vivo
[14] = Volume of distribution in dog at 0.5 mg/kg, iv and 0.2 mg/kg, po; assay type: ADME, organism-based, Canis lupus familiaris; details: in vivo, read-out: Vdss
[15] = Half life in dog at 0.5 mg/kg, iv and 0.2 mg/kg, po; assay type: ADME, organism-based, Canis lupus familiaris; details: in vivo
[16] = Bioavailability in dog at 0.5 mg/kg, iv and 0.2 mg/kg, po; assay type: ADME, organism-based, Canis lupus familiaris; details: in vivo
[17] = Apparent permeability in Caco-2 cells; assay type: ADME, cell-based; details: human
[18] = Protein binding in rabbit plasma; assay type: ADME, organism-based, Oryctolagus cuniculus; details: read-out: PPB (converted)
[19] = target: T2, Coagulation factor VII/tissue factor (Homo sapiens); assay: Anticoagulant activity in rabbit plasma measured as prothrombin time; assay type: functional, cell-free; details: Oryctolagus cuniculus, target entry is the homologue from another species

SMILES	2aPTT (Coagulation factor X [1]) [µM]	2PT [2] [µM]	Ki (Coagulation factor X [12]) [nM]	other results
Cc1nn(-c2ccc3onc(N)c3c2)c2c(=O)n(-c3ccc(-c4ccccc4CNC(C)C)cc3)cnc12	3	1.9	1.5	
Cc1nn(-c2ccc3onc(N)c3c2)c2c(=O)n(-c3ccc(-c4ccccc4CN4CCCC4)cc3)cnc12	1.6	1.1	1.3	
Cc1nn(-c2ccc3onc(N)c3c2)c2c(=O)n(-c3ccc(-c4ccccc4CN4CC[C@@H](O)C4)cc3)c(C)nc12.O=C(O)C(F)(F)F				clearance [13]: 20 mL/min/kg; Vd [14]: 6.6 L/kg; half-life [15]: 3.8 h; bioavailability [16]: 48%; Papp [17]: 4.7 ×10⁻⁶ cm/s
Cc1nn(-c2ccc3onc(N)c3c2)c2c(=O)n(-c3ccc(-c4ccccc4CNCC4CC4)cc3)cnc12	8.1	3.1	1.7	
CN(C)Cc1nccn1-c1ccc(NC(=O)c2cc(C(F)(F)F)nn2-c2ccc3onc(N)c3c2)c(F)c1 [RAZAXABAN HYDROCHLORIDE]				fraction unbound [18]: 0.07
Cc1nn(-c2ccc3onc(N)c3c2)c2c(=O)n(-c3ccc(-c4ccccc4CN(C)C)cc3)cnc12	2.1	1.3		
CN(C)Cc1ccccc1-c1ccc(-c2nnc3c(C(F)(F)F)nn(-c4ccc5onc(N)c5c4)c3c2O)cc1			5.5	
Cc1nn(-c2ccc3onc(N)c3c2)c2c(=O)n(-c3ccc(-c4ccccc4CN(C)C)cc3)c(C)nc12.O=C(O)C(F)(F)F				clearance [13]: 28.3 mL/min/kg; Vd [14]: 8.9 L/kg; half-life [15]: 4.2 h; bioavailability [16]: 23%; Papp [17]: 6.1 ×10⁻⁶ cm/s
CN(C)Cc1nccn1-c1ccc(-n2c(=O)[nH]c3c(C(F)(F)F)nn(-c4ccc5onc(N)c5c4)c3c2=O)c(F)c1	37.8	14.9	0.35	

The next lines start with results.

2aPTT (Coagulation factor X [1]) [µM]	2PT [2] [µM]	Ki (Coagulation factor X [12]) [nM]	SMILES	other results
1.7			CN(C)Cc1ccccc1-c1ccc(N2CNc3c(C(F)(F)F)nn(-c4ccc5onc(N)c5c4)c3C2=O)cc1	
2.9	1.6		Nc1noc2ccc(-n3nc(C(F)(F)F)c4c3C(=O)N(c3ccc(-c5ccccc5CN5CC[C@@H](O)C5)cc3)CN4)cc12	Ratio Ki (Homo sapiens [3]): > 1000; Ratio Ki [4]: > 500; Ratio Ki (Homo sapiens [5]): > 1000; Ratio Ki (Homo sapiens [6]): > 1000; Ratio Ki [7]: > 1000; Ratio Ki (Homo sapiens [8]): > 1000; Ratio Ki (Homo sapiens [9]): > 1000; Ratio Ki [10]: > 1000; Ratio Ki (Homo sapiens [11]): > 1000
18.6	10.9	0.5	Cc1nc2c(C(F)(F)F)nn(-c3ccc4onc(N)c4c3)c2c(=O)n1-c1ccc(-c2ccccc2CNCC2CC2)cc1	
4.3	2.1	0.5	Cc1nn(-c2ccc3onc(N)c3c2)c2c(=O)n(-c3ccc(-c4ccccc4CN4CC[C@H](O)C4)cc3)cnc12	
		0.18	Cc1nc2c(C(F)(F)F)nn(-c3ccc4onc(N)c4c3)c2c(=O)n1-c1ccc(-c2ccccc2CN2CC[C@@H](O)C2)cc1	
5.8	2.5		Cc1nn(-c2ccc3onc(N)c3c2)c2c(=O)n(-c3ccc(-c4ccccc4CN4CC[C@@H](O)C4)cc3)c(C)nc12	2PT [19]: 3.4 µM; Ratio Ki (Homo sapiens [3]): > 1000; Ratio Ki [4]: > 500; Ratio Ki (Homo sapiens [5]): > 1000; Ratio Ki (Homo sapiens [6]): > 1000; Ratio Ki [7]: > 1000; Ratio Ki (Homo sapiens [8]): > 1000; Ratio Ki (Homo sapiens [9]): > 1000; Ratio Ki [10]: > 1000; Ratio Ki (Homo sapiens [11]): > 1000
352	92.6	0.22	Nc1noc2ccc(-n3nc(C(F)(F)F)c4[nH]c(=O)n(-c5ccc(-c6ccccc6CN6CCC(O)CC6)cc5)c(=O)c43)cc12	
